The values that follow come from ChEMBL document CHEMBL4387733, “Design, synthesis and biological evaluation of indane derived GPR40 agoPAMs” (Bioorg Med Chem Lett, 2019).

The source made the active and inactive calls. The calls are words filed in the database; no cut-off is given here.

The target of series [1] is T1, Free fatty acid receptor 1 (Homo sapiens, UniProt O14842). As to the kind of experiment: Positive allosteric modulation of recombinant human GPR40 expressed in HEK293 cells assessed as increase in [3H]-myo-inositol phosphate accumulation measured after 60 mins in absence of human serum by microbeta counting method. The format is functional, cell-based.
T1 sequence (O14842 whole entry): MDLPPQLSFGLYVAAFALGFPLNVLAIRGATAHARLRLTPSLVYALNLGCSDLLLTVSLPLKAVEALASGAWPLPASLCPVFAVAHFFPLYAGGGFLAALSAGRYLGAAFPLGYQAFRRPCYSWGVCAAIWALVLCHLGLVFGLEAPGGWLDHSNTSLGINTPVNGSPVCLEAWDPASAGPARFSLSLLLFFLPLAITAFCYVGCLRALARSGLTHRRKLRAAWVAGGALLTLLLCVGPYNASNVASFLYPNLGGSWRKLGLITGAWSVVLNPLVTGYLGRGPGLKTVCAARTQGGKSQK
Series [2] addresses T1, Free fatty acid receptor 1. Briefly: Positive allosteric modulation of recombinant human GPR40 expressed in HEK293 cells assessed as increase in [3H]-myo-inositol phosphate accumulation measured after 60 mins in absence of human serum by microbeta counting method relative to control. The format is functional, cell-based. More on the design: concentration or dose not given beside the values.

The target of series [3] is T1, Free fatty acid receptor 1. Briefly: Positive allosteric modulation of recombinant human GPR40 expressed in HEK293 cells assessed as increase in [3H]-myo-inositol phosphate accumulation measured after 60 mins in presence of 100% human serum by microbeta counting method. The class given is functional, cell-based.
In series [4] the target is T1, Free fatty acid receptor 1. Briefly: Positive allosteric modulation of recombinant human GPR40 expressed in HEK293 cells assessed as increase in [3H]-myo-inositol phosphate accumulation measured after 60 mins in presence of 100% human serum by microbeta counting method relative to control. The format is functional, cell-based.
A short description of series [5]: Protein binding in human plasma assessed as unbound fraction level. The format is ADME, cell-free.
Series [6] concerns Rattus norvegicus. Briefly: Hypoglycemic activity in Sprague-Dawley rat assessed as reduction in blood glucose AUC at 0.3 mg/kg, po pretreated for 1 hr followed by glucose challenge by OGTT relative to control. The format is functional.

In general, EC50 refers to the midpoint of the concentration-response curve. Take `COc1ccc(F)c(-c2ccc3c(c2)OC[C@@H]3Oc2cccc([C@@H](CC(=O)O)C3CC3)c2)c1`: the figures for the EC50 in series [1] and in series [3] were 16 nM and 7350 nM, respectively. In addition, the Activity stood at 291% in series [2] and 138% in series [4]. The fEC50 in series [3] was 66 nM. Also, the Fu in series [5] came out at 0.9%.
With `Cc1cc(OCCCS(C)(=O)=O)cc(C)c1-c1cccc(COc2ccc3c(c2)OC[C@H]3CC(=O)O)c1`, the outcome in series [6] was Active.
As to `COc1ccc(F)c(-c2ccc3c(c2)CC[C@H]3Oc2cccc([C@H](C3CC3)[C@@H](C)C(=O)O)c2)c1`, the EC50 in series [1] was 59 nM; in series [3], over 10000 nM. In addition, the Activity in series [2] stood at 377%.
Regarding `COc1cc(-c2ccc3c(c2)CC[C@H]3Oc2cccc([C@H](C3CC3)[C@H](C)C(=O)O)c2)ccn1`, the concentration giving a half-maximal response (EC50) in series [1] is 11 nM; in series [3], 3550 nM. Besides, the Activity in series [2] stood at 448%; in series [4], 372%. In series [3], the fEC50 is 3.2 nM. In series [5], the Fu is 0.04%.
For the compound `COc1ccc(F)c(-c2ccc3c(c2C2=CCCC2(C)C)CC[C@H]3Oc2cccc([C@H](C3CC3)[C@H](C)C(=O)O)c2)c1`, the EC50 in series [1] is 326 nM; in series [3] it was 5450 nM. Besides, the Activity in series [2] was found to be 101%; in series [4] it was 110%. For the same compound, in series [3], the fEC50 is 2.3 nM.
Regarding `COc1ccc(F)c(-c2ccc(COc3cccc([C@@H](CC(=O)O)C4CC4)c3)cc2)c1`, in series [3], the EC50 is over 10000 nM. In series [5], the Fu was 0.05%.
For `CC#C[C@@H](CC(=O)O)c1ccc(OCc2cccc(-c3ccc(C(F)(F)F)cc3)c2)cc1`, in series [6], the outcome was Active.
As to `COc1ccc(F)c(-c2ccc3c(c2F)CC[C@H]3Oc2cccc([C@H](C3CC3)[C@H](C)C(=O)O)c2)c1`, the EC50 in series [1] amounted to 3.9 nM; in series [3], 810 nM. For the same compound, the Activity in series [2] stood at 352%; in series [4], 297%. For the same compound, in series [3], the fEC50 was 0.32 nM.
In the case of `COc1ccc(F)c(-c2ccc3c(c2)CC[C@H]3Oc2cccc([C@@H](CC(=O)O)C3CC3)c2)c1`, the Activity in series [2] is 352%. Moreover, in series [3], the EC50 turned out to be 5950 nM and the fEC50 came to 3.7 nM. Also, the Activity in series [4] worked out at 131%.
For `COc1ccc(F)c(-c2ccc3c(n2)CC[C@H]3Oc2cccc([C@H](C3CC3)[C@H](C)C(=O)O)c2)c1`, the EC50 in series [1] was 151 nM; in series [3] it was over 10000 nM. In addition, the Activity in series [2] stood at 366%.
As for `COc1ccc(F)c(-c2ccc3c(c2)CC[C@@H]3Oc2cccc([C@H](C3CC3)[C@H](C)C(=O)O)c2)c1`, the concentration giving a half-maximal response (EC50) in series [1] stood at 60 nM; in series [3], 5490 nM. In addition, the Activity came to 339% in series [2] and 84% in series [4]. For the same compound, the fEC50 in series [3] turned out to be 0.6 nM.
Take `COc1ccc(F)c(-c2cc3c(cc2F)[C@H](Oc2cccc([C@H](C4CC4)[C@H](C)C(=O)O)c2)CC3)c1`: the EC50 in series [1] is 155 nM; in series [3], over 10000 nM. In addition, the Activity in series [2] was 224%.
Regarding `COc1ccc(F)c(-c2cc(F)c3c(c2)CC[C@H]3Oc2cccc([C@@H](CC(=O)O)C3CC3)c2)c1`, the Activity in series [2] was 224%. For the same compound, in series [3], the concentration for a half-maximal effect (EC50) was over 10000 nM.
Take `COc1ccc(F)c(-c2cnc3c(c2)CC[C@H]3Oc2cccc([C@H](C3CC3)[C@H](C)C(=O)O)c2)c1`: in series [2], the Activity came to 159%. In series [3], the concentration for a half-maximal effect (EC50) came out at 4900 nM and the fEC50 is 7.8 nM. In addition, the Activity in series [4] came to 107%. The Fu in series [5] stood at 0.16%.
